According to ChEMBL document CHEMBL1201862, “PubChem BioAssay data set” (2004):
Active and inactive are the calls of the source.

Tests used:
[1] = viability of PTEN-deleted HCT116 cells – cell-based, HCT116 PTEN knockout, dose response (AID 1047); format: functional;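 also: HCT116 colon tumor cells with PTEN knocked out; cells exposed to compound for 60 hours before readout; potency for loss of cell viability measured by luminescence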
[2] = viability of HCT116 lacking mutant beta-catenin – cell-based, human colon tumor, dose response (AID 1045); format: functional;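 also: HCT116 colon tumor cells with beta catenin knocked out; cells exposed to compound for 60 hours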
Genome polyprotein = Genome polyprotein (dengue virus type 2, UniProt P29990); test: flavivirus cap methylation enzyme inhibition – biochemical, confirmation dose response, primary screen (AID 588689); format: functional
Cytochrome P450 1A2 = target: T1, Cytochrome P450 1A2 (Homo sapiens, UniProt P05177);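 also: PubChem cytochrome P450 panel assay, CYP1A2 panel member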
T1 sequence (P05177 whole entry): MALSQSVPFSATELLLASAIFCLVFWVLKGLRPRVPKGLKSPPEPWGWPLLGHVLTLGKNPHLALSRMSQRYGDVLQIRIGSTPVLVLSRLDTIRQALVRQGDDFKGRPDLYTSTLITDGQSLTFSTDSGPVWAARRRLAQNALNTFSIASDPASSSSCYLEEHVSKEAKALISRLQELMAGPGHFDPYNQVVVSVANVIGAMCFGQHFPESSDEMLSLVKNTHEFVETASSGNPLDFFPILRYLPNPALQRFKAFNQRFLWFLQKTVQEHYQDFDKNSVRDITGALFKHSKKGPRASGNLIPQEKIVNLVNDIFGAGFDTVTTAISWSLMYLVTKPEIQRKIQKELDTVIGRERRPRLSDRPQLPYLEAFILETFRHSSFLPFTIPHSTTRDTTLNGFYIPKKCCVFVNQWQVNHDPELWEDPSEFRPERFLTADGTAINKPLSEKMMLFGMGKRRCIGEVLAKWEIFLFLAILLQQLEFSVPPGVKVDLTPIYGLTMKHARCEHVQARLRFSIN

Cytochrome P450 2C9 = Cytochrome P450 2C9 (Homo sapiens, UniProt P11712)
cells = format: functional
[3] = THP-1 cell cytotoxicity, dose response, cytotoxicity control for non-replicating M. tuberculosis project (AID 489025); format: functional
[4] = Vero E6 cell cytotoxicity, dose response, cytotoxicity control for non-replicating M. tuberculosis project, secondary assay (AID 492998); format: functional, VeroE6; details: Vero C1008
[5] = Luminescence Cell-Based Dose Confirmation HTS to Identify Inhibitors of Platelet Dense Granule Release. [Related pubchem assays: 1663 (Primary HTS), 1678 (Summary of Project)]; format: functional
[6] = target: Luciferin 4-monooxygenase (Photinus pyralis, UniProt P08659); test: inhibition of purified Photinus pyralis luciferase – biochemical, luminescence, dose response (AID 1891)
[7] = target: T2, Corticotropin-releasing factor receptor 2/Corticotropin-releasing factor-binding protein (Homo sapiens, UniProt P24387+Q13324); test: Dose Response confirmation of uHTS hits for small molecule antagonists of the CRF-binding protein and CRF-R2 receptor complex.; format: functional; details: read-out: IC50_Mean
T2 sequence (Q13324 whole entry): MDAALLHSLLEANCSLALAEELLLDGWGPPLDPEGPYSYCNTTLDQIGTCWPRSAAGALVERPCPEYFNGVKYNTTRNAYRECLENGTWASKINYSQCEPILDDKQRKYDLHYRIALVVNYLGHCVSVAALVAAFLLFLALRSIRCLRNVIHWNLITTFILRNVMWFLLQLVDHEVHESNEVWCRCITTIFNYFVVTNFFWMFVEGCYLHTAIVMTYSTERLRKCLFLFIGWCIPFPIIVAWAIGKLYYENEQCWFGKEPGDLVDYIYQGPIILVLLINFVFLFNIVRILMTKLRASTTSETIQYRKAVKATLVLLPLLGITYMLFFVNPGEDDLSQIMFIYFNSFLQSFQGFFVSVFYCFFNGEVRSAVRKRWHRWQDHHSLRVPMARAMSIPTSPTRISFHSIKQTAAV
T2 sequence (P24387 whole entry): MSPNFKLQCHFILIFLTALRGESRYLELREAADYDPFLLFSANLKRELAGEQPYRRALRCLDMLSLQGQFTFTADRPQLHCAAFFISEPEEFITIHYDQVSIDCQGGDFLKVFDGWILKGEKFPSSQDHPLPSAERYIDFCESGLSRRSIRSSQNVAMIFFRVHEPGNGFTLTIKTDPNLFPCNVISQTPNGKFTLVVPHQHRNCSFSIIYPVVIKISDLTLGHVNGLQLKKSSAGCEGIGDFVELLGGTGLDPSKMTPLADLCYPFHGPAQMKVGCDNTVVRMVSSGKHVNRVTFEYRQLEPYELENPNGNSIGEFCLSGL

[8] = target: T2, Corticotropin-releasing factor receptor 2/Corticotropin-releasing factor-binding protein; test: activators of CRF receptor 2 with binding protein – uHTS hits, confirmation (AID 602473); format: functional; details: read-out: EC50_Mean
Streptococcus = test: GAS UMAA2166 growth inhibition – luminescence, BacTiterGlo, counter-screen for streptokinase expression inhibitor project, dose response (AID 1915); format: functional, organism-based; details: Streptococcus;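 also: potency for reduction of bacterial viability or growth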
[9] = Trypanosoma cruzi growth suppression in host cells – NIH3T3 host cells, beta-gal luminescence, confirmation (AID 2044); format: functional, cell-based;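 also: intracellular parasites grown in NIH/3T3 mouse fibroblasts as host cells; luminescent beta-galactosidase reporter signal from transgenic T. cruzi replicating inside host cells; inhibitors lower the luminescence signal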
[10] = system: Streptococcus sp. 'group A'; test: Streptococcus pyogenes SK(-)GAS viability under kanamycin – luminescence, BacTiterGlo, confirmation, counter-screen for streptokinase expression inhibitor project, dose response (AID 1900); format: functional, organism-based; details: Streptococcus sp. 'group A'
[11] = NIH3T3 cell viability loss – ATP luminescence, mouse fibroblasts, counter-screen, dose response (AID 2010); format: functional, cell-based; details: NIH3T3;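 also: cells exposed to compound for about 90 hours before reading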
Cytochrome P450 2D6 = Cytochrome P450 2D6 (Homo sapiens, UniProt P10635);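 also: CYP2D6 member of a cytochrome P450 panel assay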
Protein skinhead-1 = target: T3, Protein skinhead-1 (Caenorhabditis elegans, UniProt P34707); format: functional
T3 sequence (P34707 whole entry): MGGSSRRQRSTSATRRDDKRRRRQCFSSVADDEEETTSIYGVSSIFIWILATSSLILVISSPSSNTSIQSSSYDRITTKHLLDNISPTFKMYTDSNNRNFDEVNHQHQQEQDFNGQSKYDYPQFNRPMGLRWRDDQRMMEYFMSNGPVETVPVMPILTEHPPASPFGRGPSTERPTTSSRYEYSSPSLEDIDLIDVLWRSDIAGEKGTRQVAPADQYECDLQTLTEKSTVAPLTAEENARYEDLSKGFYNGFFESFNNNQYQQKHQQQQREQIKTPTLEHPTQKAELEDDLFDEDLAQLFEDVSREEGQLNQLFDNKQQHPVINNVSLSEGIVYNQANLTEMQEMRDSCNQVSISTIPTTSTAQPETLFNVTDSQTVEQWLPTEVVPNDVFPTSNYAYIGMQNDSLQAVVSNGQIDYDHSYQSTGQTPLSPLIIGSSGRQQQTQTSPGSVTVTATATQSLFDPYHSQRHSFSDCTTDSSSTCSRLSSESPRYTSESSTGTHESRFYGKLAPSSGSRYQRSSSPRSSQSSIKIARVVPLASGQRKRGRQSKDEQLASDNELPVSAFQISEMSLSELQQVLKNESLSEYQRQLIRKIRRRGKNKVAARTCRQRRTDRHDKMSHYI

Chain of Cytochrome P450 2C9 (P11712 whole entry): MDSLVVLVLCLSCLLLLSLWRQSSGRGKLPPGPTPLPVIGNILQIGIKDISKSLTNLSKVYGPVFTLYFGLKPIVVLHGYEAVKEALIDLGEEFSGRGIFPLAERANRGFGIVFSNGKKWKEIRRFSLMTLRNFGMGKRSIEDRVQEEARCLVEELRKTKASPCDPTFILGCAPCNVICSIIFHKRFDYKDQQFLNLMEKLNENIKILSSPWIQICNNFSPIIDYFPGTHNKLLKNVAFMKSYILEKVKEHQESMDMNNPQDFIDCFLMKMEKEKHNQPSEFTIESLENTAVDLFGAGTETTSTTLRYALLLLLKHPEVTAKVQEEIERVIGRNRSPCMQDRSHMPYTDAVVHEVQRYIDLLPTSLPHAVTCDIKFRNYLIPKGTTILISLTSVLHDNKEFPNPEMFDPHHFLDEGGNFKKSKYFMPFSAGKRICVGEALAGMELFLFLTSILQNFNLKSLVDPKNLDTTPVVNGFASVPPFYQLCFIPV
Chain of Luciferin 4-monooxygenase (P08659 whole entry): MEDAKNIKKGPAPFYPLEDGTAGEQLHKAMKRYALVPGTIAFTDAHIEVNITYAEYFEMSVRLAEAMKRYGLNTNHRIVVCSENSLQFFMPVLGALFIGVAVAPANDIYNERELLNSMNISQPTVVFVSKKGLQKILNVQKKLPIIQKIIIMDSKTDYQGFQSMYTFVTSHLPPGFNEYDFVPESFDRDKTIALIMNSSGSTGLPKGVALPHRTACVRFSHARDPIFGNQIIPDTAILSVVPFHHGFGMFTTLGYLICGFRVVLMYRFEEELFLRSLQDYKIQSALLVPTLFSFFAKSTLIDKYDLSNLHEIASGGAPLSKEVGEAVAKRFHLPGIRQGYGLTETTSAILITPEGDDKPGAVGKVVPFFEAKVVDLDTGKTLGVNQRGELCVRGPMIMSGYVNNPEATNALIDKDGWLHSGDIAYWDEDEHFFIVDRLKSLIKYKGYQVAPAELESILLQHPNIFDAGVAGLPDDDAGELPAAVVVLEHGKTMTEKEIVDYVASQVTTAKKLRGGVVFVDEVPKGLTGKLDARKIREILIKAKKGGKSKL
Chain of Cytochrome P450 2D6 (P10635 whole entry): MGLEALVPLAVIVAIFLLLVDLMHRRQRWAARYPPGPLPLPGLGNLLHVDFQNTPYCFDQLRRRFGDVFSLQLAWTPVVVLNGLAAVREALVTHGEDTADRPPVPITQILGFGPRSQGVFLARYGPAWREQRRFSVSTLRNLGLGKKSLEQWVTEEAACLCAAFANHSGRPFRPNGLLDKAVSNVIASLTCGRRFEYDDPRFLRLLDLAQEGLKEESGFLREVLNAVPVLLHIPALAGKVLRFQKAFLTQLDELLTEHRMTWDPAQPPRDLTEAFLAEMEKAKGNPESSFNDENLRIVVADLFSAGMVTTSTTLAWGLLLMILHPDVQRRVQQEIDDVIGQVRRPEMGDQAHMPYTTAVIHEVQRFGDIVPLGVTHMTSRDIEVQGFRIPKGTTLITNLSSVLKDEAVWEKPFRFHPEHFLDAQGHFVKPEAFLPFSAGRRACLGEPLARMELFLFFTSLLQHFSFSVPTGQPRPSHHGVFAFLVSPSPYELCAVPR
Chain of Genome polyprotein (P29990 2492-3391 limits assumed): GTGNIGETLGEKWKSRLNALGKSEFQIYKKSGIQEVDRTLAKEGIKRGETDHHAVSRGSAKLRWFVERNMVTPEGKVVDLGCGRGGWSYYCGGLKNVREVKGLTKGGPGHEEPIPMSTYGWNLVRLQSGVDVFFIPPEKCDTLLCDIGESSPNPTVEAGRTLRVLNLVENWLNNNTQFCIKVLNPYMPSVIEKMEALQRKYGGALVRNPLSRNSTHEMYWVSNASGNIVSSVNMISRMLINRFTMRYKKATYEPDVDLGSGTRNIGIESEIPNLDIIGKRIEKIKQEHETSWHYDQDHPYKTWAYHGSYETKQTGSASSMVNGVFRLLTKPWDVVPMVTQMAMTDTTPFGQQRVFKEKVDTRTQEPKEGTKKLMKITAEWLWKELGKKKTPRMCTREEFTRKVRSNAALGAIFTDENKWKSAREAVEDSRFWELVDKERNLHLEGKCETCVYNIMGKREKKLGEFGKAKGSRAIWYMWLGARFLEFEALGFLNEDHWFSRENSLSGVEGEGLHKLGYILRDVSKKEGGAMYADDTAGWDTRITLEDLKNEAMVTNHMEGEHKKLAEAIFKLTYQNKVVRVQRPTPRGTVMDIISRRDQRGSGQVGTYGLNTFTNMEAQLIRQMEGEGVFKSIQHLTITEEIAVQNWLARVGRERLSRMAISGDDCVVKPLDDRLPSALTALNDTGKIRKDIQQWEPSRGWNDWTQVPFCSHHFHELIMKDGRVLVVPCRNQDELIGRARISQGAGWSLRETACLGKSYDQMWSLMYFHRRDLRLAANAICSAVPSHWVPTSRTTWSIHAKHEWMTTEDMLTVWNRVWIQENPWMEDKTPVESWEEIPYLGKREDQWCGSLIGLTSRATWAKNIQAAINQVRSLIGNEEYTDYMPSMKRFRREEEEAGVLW

With `CCc1ccc(NC(=O)CSc2nc3cc(C(=O)OC)ccc3c(=O)n2CC2CCCO2)cc1` (configuration not stated) the EC50 [1] was 27.4 µM (active) and the EC50 [2] was 25.2 µM (active).

With `O=C(O)CN1C(=O)/C(=C\c2cccc(OCc3ccc(Cl)cc3)c2)SC1=S` the IC50 (Genome polyprotein) was 39.5 µM (active).

With `FC(F)(F)c1ccccc1-c1ccc2ncnc(NC3CCNCC3)c2c1` the AC50 (Cytochrome P450 1A2) was 20 µM (inconclusive) and the AC50 (Cytochrome P450 2C9) was “inconclusive”.

In the case of `Cc1noc(C)c1-c1cc(NCc2cccnc2)ncn1`, the AC50 (Cytochrome P450 2C9) is reported as “inconclusive”.

For `C[C@H](NC(=O)c1[nH]cnc1C(=O)Nc1ccccc1)C(=O)OC(C)(C)C`, the IC50 (cells) was 8.07 µM (active), the CC50 [3] was > 40 µM (active) and the CC50 [4] was > 20 µM (active).

For `CN(C(=O)Cn1nnc(-c2cccc(C(F)(F)F)c2)n1)C1CCCCC1`, the EC50 [5] was > 112 µM (not active), the AC50 (Cytochrome P450 2C9) was “inconclusive” and the EC50 [6] was > 112 µM (not active).

With `c1csc(-c2nc3nc4ccccc4nc3n2Cc2ccc3c(c2)OCO3)c1` the EC50 [1] was 48.7 µM (active) and the EC50 [2] was 45.5 µM (active).

In the case of `Cc1ncsc1C(=O)N1CCCC(C(=O)c2ccc3ccccc3c2)C1` (configuration not stated), the IC50 [7] is reported as > 47.1 µM (inactive) and the EC50 [8] is reported as > 53 µM (inactive).

In the case of `O=C1COc2ccccc2CN1`, the AC50 (Cytochrome P450 2C9) is reported as “inconclusive”.

With `CC(C)Cn1cc(C(=O)N2CCC(C)CC2)c2c3ccccc3n(C)c2c1=O` the IC50 [7] was > 47.1 µM (inactive) and the EC50 [8] was > 53 µM (inactive).

In the case of `COC(=O)c1ccc(Cl)c(NC(=O)c2ccc(-c3ccccc3)cc2)c1`, the AC50 (Cytochrome P450 2C9) is reported as “inconclusive”.

In the case of `Cc1ccn2c(NC3CCCC3)c(-c3ccccn3)nc2c1`, the IC50 (cells) is reported as 4.71 µM (active), the EC50 (Streptococcus) is reported as 13.3 µM (active) and the EC50 [9] is reported as 2.06 µM (active). For the same molecule, the CC50 [3] was 17.5 µM (active), the EC50 [10] was 3.14 µM (active) and the EC50 [11] was > 60 µM (not active). For the same molecule, the CC50 [4] was 10.1 µM (active).

For `CN(CC(=O)Nc1cccc2c1CCCC2)S(=O)(=O)c1ccc(Br)cc1`, the AC50 (Cytochrome P450 1A2) was 10 µM (inconclusive), the AC50 (Cytochrome P450 2D6) was 3.16 µM (inconclusive) and the AC50 (Cytochrome P450 2C9) was “inconclusive”.

For `CCOC(=O)c1c(C)[nH]c(C(=O)COC(=O)c2oc3ccc(OC)cc3c2C)c1C`, the IC50 (Protein skinhead-1) was > 100 µM (inactive).

In the case of `Cc1ccccc1CN1C(=O)C(O)(CC(=O)c2ccncc2)c2ccccc21` (configuration not stated), the EC50 [1] is reported as 7.98 µM (active) and the EC50 [2] is reported as 9.54 µM (active).

With `CC(Sc1nc(-c2ccccc2)cc(C(F)(F)F)n1)C(=O)Nc1ccc2c(c1)OCO2` (configuration not stated) the EC50 [1] was 19.3 µM (active) and the EC50 [2] was 24.6 µM (active).

In the case of `O=c1[nH]c2ccc(Cl)cc2[nH]1`, the IC50 [7] is reported as > 47.1 µM (inactive) and the EC50 [8] is reported as > 53 µM (inactive).
